Among the test systems are SNB-75; SK-MEL-28; SNB-78; UACC-62; RXF 393; COLO 205; HL-60; IGROV-1; SF-295; MOLT-4; M14; CCRF-CEM; HCT-116; OVCAR-5; SK-MEL-5; SR.
Holding throughout (assay): inhibition of tumour cell growth, NCI panel, 48 h

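96-well plates; 48 h exposure; 5 concentrations. Endpoints by linear interpolation between flanking doses. Not reached: highest tested concentration assigned. GI50 marks 50% less growth.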 Activity calls are given as the source filed them. Rule as the data show it: active = GI50 up to about 1.1 µM and inactive = higher. Bounds are passed on as bounds.

As for `CCOC(=O)C1(Cc2ccc3ccccc3c2)CCCCCN1` (centres undefined), the GI50 in the assay on SNB-75 is 2.78 µM (inactive); in the assay on SK-MEL-28, 23.3 µM (inactive); with SNB-78, 64.3 µM (inactive); in the assay with UACC-62, 46.3 µM (inactive); in the assay with RXF 393, 20.4 µM (inactive); with COLO 205, 18.7 µM (inactive). The GI50 in the assay with HL-60 was 18.8 µM (inactive); with IGROV-1, > 100 µM (inactive); in the assay with SF-295 it was 19 µM (inactive); in the assay on MOLT-4, 4.91 µM (inactive); in the assay with M14 it was 20 µM (inactive).
With `O=C(Nc1nc2ncn(CCOC(=O)c3ccccc3)c2c(=S)[nH]1)c1ccccc1`, the GI50 was > 100 µM (inactive) in the assay with CCRF-CEM; 23.8 µM (inactive) with SNB-75; 42.3 µM (inactive) with SK-MEL-28; 44.1 µM (inactive) in the assay with SNB-78; 56.2 µM (inactive) in the assay on UACC-62; 18.6 µM (inactive) with RXF 393. Moreover, the GI50 with COLO 205 is > 100 µM (inactive); in the assay with HCT-116, > 100 µM (inactive); in the assay with HL-60, > 100 µM (inactive); in the assay with OVCAR-5, > 100 µM (inactive); with IGROV-1 it was > 100 µM (inactive); in the assay on SF-295 it was 45 µM (inactive). Further, the GI50 in the assay on SK-MEL-5 and in the assay on M14 was > 100 µM (inactive) each time.
For `c1ccc([P+](c2ccccc2)(c2ccccc2)C2Sc3ccccc3S2)cc1`, the GI50 was 13.8 µM (inactive) with CCRF-CEM; 17.8 µM (inactive) in the assay on SNB-75; 13.6 µM (inactive) in the assay with SK-MEL-28; 18.7 µM (inactive) in the assay on SNB-78; 13.8 µM (inactive) in the assay with UACC-62; 14.9 µM (inactive) with RXF 393. Also, the GI50 was 16.7 µM (inactive) in the assay with COLO 205; 12.8 µM (inactive) with HCT-116; 5.96 µM (inactive) in the assay with HL-60; 19.7 µM (inactive) in the assay with OVCAR-5; > 100 µM (inactive) in the assay on IGROV-1; 17.4 µM (inactive) with SF-295. Besides, the GI50 is 17.7 µM (inactive) in the assay with SK-MEL-5 and 15.3 µM (inactive) with M14.
As to `O=C(COc1ccccc1Cl)N1N=C(c2ccccc2)CC1(O)c1ccccc1` (centres undefined), the GI50 with SNB-75 is 47.6 µM (inactive); in the assay with SK-MEL-28, 17.4 µM (inactive); in the assay on SNB-78, 20.4 µM (inactive); with UACC-62 it was 12.8 µM (inactive); in the assay with COLO 205, 18 µM (inactive); with HCT-116, 16.4 µM (inactive). The GI50 in the assay on HL-60 was 9.42 µM (inactive); in the assay on OVCAR-5 it was 19.4 µM (inactive); with IGROV-1, 17.9 µM (inactive); with SF-295, 20.5 µM (inactive); in the assay on MOLT-4 it was 7.43 µM (inactive); in the assay with SR, 4.61 µM (inactive). For the same compound, in the assay on M14, the GI50 is 17 µM (inactive).
As to `CC1CN1c1c(C(=O)/C=C/c2ccc(Cl)cc2)c(-c2ccccc2)nn(C)c1=O` (centres undefined), the GI50 with CCRF-CEM was 2.24 µM (inactive); in the assay on SNB-75 it was 2.65 µM (inactive); in the assay with SK-MEL-28, 3.89 µM (inactive); with SNB-78 it was 2.21 µM (inactive); in the assay with UACC-62, 2.32 µM (inactive); with RXF 393, 3.01 µM (inactive). Also, the GI50 in the assay on COLO 205 is 1.96 µM (inactive); in the assay on HCT-116 it was 2.52 µM (inactive); in the assay on HL-60, 2.23 µM (inactive); in the assay with OVCAR-5 it was 5.47 µM (inactive); in the assay with IGROV-1 it was 3.05 µM (inactive); with SF-295, 3.96 µM (inactive). Also, the GI50 is 2.24 µM (inactive) in the assay on MOLT-4 and 1.95 µM (inactive) with M14.
As for `Cc1cc(C(O)CCCc2ccccc2)cc(C)c1O` (centres undefined), the GI50 with CCRF-CEM was 27.7 µM (inactive); in the assay on SNB-75, 16.4 µM (inactive); with SK-MEL-28, 34.4 µM (inactive); in the assay on SNB-78, 34.9 µM (inactive); in the assay on UACC-62, 35.9 µM (inactive); in the assay with RXF 393, 12 µM (inactive). Also, the GI50 with COLO 205 was 67.6 µM (inactive); in the assay on HL-60, 16.6 µM (inactive); with OVCAR-5, 43.9 µM (inactive); in the assay with IGROV-1, 83.6 µM (inactive); in the assay on SF-295, 28.8 µM (inactive); with SK-MEL-5 it was 22.5 µM (inactive). Also, the GI50 in the assay with MOLT-4 was 19.4 µM (inactive); in the assay with M14, 56.1 µM (inactive).
For the compound `O=C(N/N=C1\C(=O)N(c2nccs2)C(=O)C(=O)C1c1nc2ccccc2s1)c1ccccc1O` (centres undefined), the GI50 in the assay on CCRF-CEM is 39.5 µM (inactive); with SNB-75 it was 3.3 µM (inactive); in the assay on SK-MEL-28 it was 88.1 µM (inactive); with SNB-78 it was 33.3 µM (inactive); with UACC-62, 31.3 µM (inactive); with RXF 393, 21.1 µM (inactive). The GI50 in the assay with COLO 205 was > 100 µM (inactive); with HCT-116, 29.9 µM (inactive); in the assay on HL-60, 36.7 µM (inactive); in the assay with OVCAR-5, > 100 µM (inactive); in the assay with IGROV-1, 25.9 µM (inactive); with SF-295 it was 47.5 µM (inactive). The GI50 in the assay with SK-MEL-5 is 47.5 µM (inactive); in the assay with M14, > 100 µM (inactive).
For the compound `Cc1nc2c(nc1C)C(=O)C1=C(C2=O)C2C=CC1CC2`, the GI50 is 1.1 µM (active) with CCRF-CEM; 28.6 µM (inactive) in the assay with SNB-75; 18.3 µM (inactive) in the assay on SK-MEL-28; 3.21 µM (inactive) in the assay on SNB-78; 2.86 µM (inactive) with UACC-62; 6.79 µM (inactive) in the assay with RXF 393. Also, the GI50 with COLO 205 was 14.9 µM (inactive); in the assay with HCT-116, 1.54 µM (inactive); in the assay on HL-60, 1.44 µM (inactive); in the assay with OVCAR-5, 21.3 µM (inactive); with IGROV-1, 2.63 µM (inactive); in the assay on SF-295, 11.7 µM (inactive). For the same compound, the GI50 is 2.05 µM (inactive) with SK-MEL-5, 1.32 µM (inactive) with MOLT-4 and 12.8 µM (inactive) in the assay on M14.
`Cc1ccc(/N=N/c2c(C)nn(-c3ccccc3)c2C)c(Br)c1`: the GI50 in the assay on CCRF-CEM was 27 µM (inactive); in the assay with SNB-75 it was > 100 µM (inactive); in the assay on SK-MEL-28, > 100 µM (inactive); in the assay with SNB-78, > 100 µM (inactive); in the assay with UACC-62 it was 89.9 µM (inactive); with RXF 393, 54 µM (inactive). Besides, the GI50 with COLO 205 was > 100 µM (inactive); in the assay with HCT-116, 41.3 µM (inactive); with HL-60, 6.84 µM (inactive); in the assay with OVCAR-5 it was > 100 µM (inactive); with IGROV-1, > 100 µM (inactive); with SF-295 it was > 100 µM (inactive). The figures for the GI50 in the assay with SK-MEL-5, in the assay on MOLT-4 and with M14 were 66.1 µM (inactive), 64 µM (inactive) and > 100 µM (inactive), respectively.
Regarding `COC(=O)C(=O)C(C#N)c1nc2ccccc2s1` (centres undefined), the GI50 in the assay with CCRF-CEM was 75.2 µM (inactive); with SNB-75 it was 42.9 µM (inactive); in the assay with SK-MEL-28 it was > 100 µM (inactive); in the assay with SNB-78 it was > 100 µM (inactive); with UACC-62 it was > 100 µM (inactive); with RXF 393 it was > 100 µM (inactive). The GI50 in the assay with COLO 205 is > 100 µM (inactive); in the assay with HCT-116, 97.1 µM (inactive); in the assay with HL-60, 92.9 µM (inactive); in the assay on OVCAR-5, > 100 µM (inactive); in the assay with IGROV-1 it was > 100 µM (inactive); with SF-295, > 100 µM (inactive). Further, the GI50 with SK-MEL-5 is > 100 µM (inactive); in the assay on MOLT-4, 60.4 µM (inactive); with M14, > 100 µM (inactive).

(Values after ChEMBL document CHEMBL1201862, “PubChem BioAssay data set” (2004).)
